Literature values as cited in patent US20070149611A1, “CB-DELTA8-THC COMPOSITION” (priority 2003, published 2007).

Tests used:
[1] = CBD alone
[2] = relative to Δ^9-THC
[3] = Δ^9-THC is easily oxidized to cannabinol
[4] = more effective than Δ^9-THC; Abrahamov et al, 1995

SMILES	effects when administered on its own [1]	psychometric potency, less potent than Δ^9-THC (generally considered) [2]	psychometric potency, times less potent than Δ^9-THC (in some cases) [2]	stability towards oxidation to cannabinol [3]	anti-emetic effectiveness relative to Δ^9-THC [4]
C=C(C)[C@@H]1CCC(C)=C[C@H]1c1c(O)cc(CCCCC)cc1O [CBD, cannabidiol]	no noticeable effects				
CCCCCc1cc(O)c2c(c1)OC(C)(C)[C@@H]1CC=C(C)C[C@@H]21 [Δ^8-THC, Δ^8-tetrahydrocannabinol]		50%	3-10 times	very stable	200%
